Experimental data: PMC5679212 (The Biochemical journal, 2014)

How the values were obtained:
Format in all cases: binding
[1] = target: ULK4 (unc-51 like kinase 4) (Homo sapiens, UniProt Q96C45); experiment: thermal-shift assay
[2] = target: T1, MLKL (mixed lineage kinase domain-like) (Homo sapiens, UniProt Q8NB16); experiment: ITC and thermal-shift assay
T1 sequence (Q8NB16 190-471 limits assumed): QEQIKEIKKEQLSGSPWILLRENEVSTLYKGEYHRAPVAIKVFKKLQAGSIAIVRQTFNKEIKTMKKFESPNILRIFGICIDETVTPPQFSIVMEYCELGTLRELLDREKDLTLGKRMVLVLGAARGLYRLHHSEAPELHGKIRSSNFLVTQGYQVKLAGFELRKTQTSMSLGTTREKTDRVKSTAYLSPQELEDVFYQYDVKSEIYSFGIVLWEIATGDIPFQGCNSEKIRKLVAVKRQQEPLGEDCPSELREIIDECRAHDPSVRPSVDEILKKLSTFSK

[3] = target: T2, EphB6 (Ephrin type-B receptor 6) (Homo sapiens, UniProt O15197); experiment: thermal-shift assay
T2 sequence (O15197 670-919 limits assumed): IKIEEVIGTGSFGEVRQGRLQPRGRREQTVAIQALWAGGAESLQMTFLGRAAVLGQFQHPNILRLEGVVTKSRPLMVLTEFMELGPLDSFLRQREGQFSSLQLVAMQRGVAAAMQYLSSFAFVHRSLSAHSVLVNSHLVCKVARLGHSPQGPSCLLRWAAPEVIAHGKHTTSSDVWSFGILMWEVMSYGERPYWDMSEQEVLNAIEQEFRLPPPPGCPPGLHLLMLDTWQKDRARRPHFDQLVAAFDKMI

TYK2(JH2) = TYK2(JH2) (Homo sapiens, UniProt P29597); experiment: thermal-shift assay
TYK2(JH2), sequence (P29597 575-869): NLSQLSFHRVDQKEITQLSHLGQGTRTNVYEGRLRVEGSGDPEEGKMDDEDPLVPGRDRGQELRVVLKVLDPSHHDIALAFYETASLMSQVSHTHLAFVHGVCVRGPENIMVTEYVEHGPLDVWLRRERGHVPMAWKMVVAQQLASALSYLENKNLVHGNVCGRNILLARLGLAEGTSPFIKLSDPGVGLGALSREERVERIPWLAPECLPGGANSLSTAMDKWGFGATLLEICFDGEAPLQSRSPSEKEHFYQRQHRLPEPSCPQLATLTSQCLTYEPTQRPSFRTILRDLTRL

ULK4 (unc-51 like kinase 4), sequence (Q96C45 1-288 limits assumed): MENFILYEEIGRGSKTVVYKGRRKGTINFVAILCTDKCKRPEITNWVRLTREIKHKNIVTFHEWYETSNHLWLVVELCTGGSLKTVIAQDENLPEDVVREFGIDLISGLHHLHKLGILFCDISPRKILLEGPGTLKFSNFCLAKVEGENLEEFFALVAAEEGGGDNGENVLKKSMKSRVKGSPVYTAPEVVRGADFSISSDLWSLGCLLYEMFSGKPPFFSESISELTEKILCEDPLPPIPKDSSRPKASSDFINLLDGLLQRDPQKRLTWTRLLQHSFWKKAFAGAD

Row | SMILES | thermal-shift assay (0.2 mM nucleotide) [1] | Kd [2] [µM] | thermal-shift assay (0.2 mM nucleotide) [3] | thermal-shift assay (40 μM ligand, ΔTm ≥3 °C) (TYK2(JH2))
1 | Nc1ncnc2c1ncn2[C@@H]1O[C@H](COP(=O)(O)OP(=O)(O)OP(=O)(O)O)[C@@H](O)[C@H]1O [ATP] | we observed that ATP binding was still accomplished by EphB6 and ULK4 (Figures 3C and 3E) | ~15 | we observed that ATP binding was still accomplished by EphB6 and ULK4 (Figures 3C and 3E) | –
2 | NCc1ccc(Nc2ncc(F)c(Nc3ccccc3)n2)cc1 [DAP, N′2′-(4-aminomethyl-phenyl)-5-fluoro-N′4′-phenyl-pyrimidine-2,4-diamine] | – | – | – | consistent with the binding to the small-molecule kinase inhibitors DAP and VI16832 observed in the present study (Figure 2E)
